# Results from patent publication US7138361B2, “Herbicidal heterocycles” (E. I. du Pont de Nemours and Company, priority 2000, dated 2006).
# Experiments:
# Assay type in all cases: in vivo
# [1] = test system: barnyardgrass (Echinochloa crus-galli); test: Test B flooded paddy test; conditions: Rate 1000 g/ha, scale of 0 to 100 where 0 is no effect and 100 is complete control, visually evaluated after 13 to 15 days
# Procedure, shortened: (§1)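 Visual injury score on a 0–100 scale, where 100 means complete control, assigned against untreated controls 13 to 15 days after plants at the 2-leaf stage were treated under flooded paddy conditions.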
# [2] = test system: duck salad (Heteranthera limosa); test: Test B flooded paddy test; conditions: Rate 1000 g/ha, scale of 0 to 100 where 0 is no effect and 100 is complete control, visually evaluated after 13 to 15 days
# Procedure, shortened: as §1
# rice (Oryza saliva) [3] = test: Test B flooded paddy test; conditions: Rate 1000 g/ha, scale of 0 to 100 where 0 is no effect and 100 is complete control, visually evaluated after 13 to 15 days
# Procedure, shortened: as §1
# [4] = test system: smallflower flatsedge (Cyperus difformis); test: Test B flooded paddy test; conditions: Rate 1000 g/ha, scale of 0 to 100 where 0 is no effect and 100 is complete control, visually evaluated after 13 to 15 days
# Procedure, shortened: as §1
# [5] = test system: bermudagrass (Cynodon dactylon); test: Test C postemergence
# Procedure, shortened: (§2)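 Visual 0–100 rating vs controls (0 = no effect, 100 = complete control) at 12–14 d, greenhouse. Compounds in non-phytotoxic solvent + surfactant; pre: sprayed after seeding; post: 1–4-leaf plants, 2–18 cm.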
# [6] = test system: cocklebur (Xanthium strumarium); test: Test C postemergence
# Procedure, shortened: as §2
# [7] = test system: common ragweed (Ambrosia elatior); test: Test C postemergence
# Procedure, shortened: as §2
# corn (Zea mays) = test: Test C postemergence
# Procedure, shortened: as §2
# [8] = test system: crabgrass (Digitaria sanguinalis); test: Test C postemergence
# Procedure, shortened: as §2
# [9] = test system: giant foxtail (Setaria faberii); test: Test C postemergence
# Procedure, shortened: as §2
# [10] = test system: goosegrass (Eleusine indica); test: Test C postemergence
# Procedure, shortened: as §2
# [11] = test system: johnsongrass (Sorghum halepense); test: Test C postemergence
# Procedure, shortened: as §2
# kochia (Kochia scoparia) = test: Test C postemergence
# Procedure, shortened: as §2
# [12] = test system: lambsquarters (Chenopodium album); test: Test C postemergence
# Procedure, shortened: as §2
# [13] = test system: morningglory (Ipomoea hederacea); test: Test C postemergence
# Procedure, shortened: as §2
# [14] = test system: pigweed (Amaranthus retroflexus); test: Test C postemergence
# Procedure, shortened: as §2
# soybean (Glycine max) = test: Test C postemergence
# Procedure, shortened: as §2
# [15] = test system: velvetleaf (Abutilon theophrasti); test: Test C postemergence
# Procedure, shortened: as §2
# [16] = test system: yellow nutsedge (Cyperus esculentus); test: Test C postemergence
# Procedure, shortened: as §2
# [17] = test system: barnyardgrass (Echinochloa crus-galli); test: Test C flooded paddy test; conditions: for Barnyardgrass plant response rating: Flooded Paddy, scale 0 to 100, 0 no effect, 100 complete control; for Plant response rating, Barnyardgrass: flooded paddy test, scale 0 to 100 (0 no effect, 100 complete control)
# Procedure, shortened: (§3)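 Visual injury score, 0 (no effect) to 100 (complete control), relative to controls. Paddy plants treated at 2-leaf stage; greenhouse hold 12–14 d before rating.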
# [18] = test system: duck salad (Heteranthera limosa); test: Test C flooded paddy test; conditions: for Ducksalad plant response rating: Flooded Paddy, scale 0 to 100, 0 no effect, 100 complete control; for Plant response rating, Ducksalad: flooded paddy test, scale 0 to 100 (0 no effect, 100 complete control)
# Procedure, shortened: as §3
# rice (Oryza saliva) [19] = test: Test C flooded paddy test; conditions: for Rice plant response rating: Flooded Paddy, scale 0 to 100, 0 no effect, 100 complete control; for Plant response rating, Rice: flooded paddy test, scale 0 to 100 (0 no effect, 100 complete control)
# Procedure, shortened: as §3
# Sunflower = test: Test C preemergence; conditions: Rate 31 g/ha, scale 0 to 100
# [20] = Rate 62 g/ha, scale 0 to 100, 0 no effect, 100 complete control
# [21] = Rate 125 g/ha, scale 0 to 100, 0 no effect, 100 complete control
# [22] = Rate 250 g/ha, scale 0 to 100 (0 no effect, 100 complete control)
# [23] = Rate 500 g/ha, scale 0 to 100 (0 no effect, 100 complete control)
structure (smiles),measurement,setting,value
CCC(CC)c1ccn(C2SCN(c3cccc(C(F)(F)F)c3)C2=O)n1 (centres unmarked) [Compound 21],"Plant response rating, Barnyardgrass",[1],100
same,"Plant response rating, Ducksalad",[2],100
same,"Plant response rating, Rice",rice (Oryza saliva) [3],90
same,"Plant response rating, Flatsedge",[4],100
same,"Plant response rating, Bermudagrass","[5]; Rate 31 g/ha, scale 0 to 100",50
same,"Plant response rating, Bermudagrass",[5]; [20],50
same,"Plant response rating, Bermudagrass",[5]; [21],50
same,"Plant response rating, Cocklebur","[6]; Rate 31 g/ha, scale 0 to 100",20
same,"Plant response rating, Cocklebur",[6]; [21],30
same,"Plant response rating, Ragweed, Common","[7]; Rate 31 g/ha, scale 0 to 100",0
same,"Plant response rating, Ragweed, Common",[7]; [21],50
same,"Plant response rating, Corn","corn (Zea mays); Rate 31 g/ha, scale 0 to 100",0
same,"Plant response rating, Corn",corn (Zea mays); [21],0
same,"Plant response rating, Crabgrass","[8]; Rate 31 g/ha, scale 0 to 100",0
same,"Plant response rating, Crabgrass",[8]; [21],0
same,"Plant response rating, Foxtail, Giant","[9]; Rate 31 g/ha, scale 0 to 100",0
same,"Plant response rating, Foxtail, Giant",[9]; [21],0
same,"Plant response rating, Goosegrass","[10]; Rate 31 g/ha, scale 0 to 100",0
same,"Plant response rating, Goosegrass",[10]; [21],0
same,"Plant response rating, Johnsongrass","[11]; Rate 31 g/ha, scale 0 to 100",0
same,"Plant response rating, Johnsongrass",[11]; [21],50
same,"Plant response rating, Kochia","kochia (Kochia scoparia); Rate 31 g/ha, scale 0 to 100",30
same,"Plant response rating, Kochia",kochia (Kochia scoparia); [21],40
same,"Plant response rating, Lambsquarters","[12]; Rate 31 g/ha, scale 0 to 100",70
same,"Plant response rating, Lambsquarters",[12]; [21],80
same,"Plant response rating, Morningglory","[13]; Rate 31 g/ha, scale 0 to 100",0
same,"Plant response rating, Morningglory",[13]; [21],60
same,"Plant response rating, Pigweed","[14]; Rate 31 g/ha, scale 0 to 100",50
same,"Plant response rating, Pigweed",[14]; [21],70
same,"Plant response rating, Soybean","soybean (Glycine max); Rate 31 g/ha, scale 0 to 100",0
same,"Plant response rating, Soybean",soybean (Glycine max); [21],30
same,"Plant response rating, Velvetleaf","[15]; Rate 31 g/ha, scale 0 to 100",20
same,"Plant response rating, Velvetleaf",[15]; [21],30
same,"Plant response rating, Nutsedge","[16]; Rate 31 g/ha, scale 0 to 100",0
same,"Plant response rating, Nutsedge",[16]; [21],0
same,Barnyardgrass plant response rating,[17]; Rate 250 g/ha,50
same,Barnyardgrass plant response rating,[17]; Rate 500 g/ha,100
same,"Plant response rating, Barnyardgrass",[17]; Rate 62 g/ha,40
same,"Plant response rating, Barnyardgrass",[17]; Rate 125 g/ha,50
same,Ducksalad plant response rating,[18]; Rate 250 g/ha,90
same,Ducksalad plant response rating,[18]; Rate 500 g/ha,100
same,"Plant response rating, Ducksalad",[18]; Rate 62 g/ha,80
same,"Plant response rating, Ducksalad",[18]; Rate 125 g/ha,90
same,Rice plant response rating,rice (Oryza saliva) [19]; Rate 250 g/ha,70
same,Rice plant response rating,rice (Oryza saliva) [19]; Rate 500 g/ha,70
same,"Plant response rating, Rice",rice (Oryza saliva) [19]; Rate 62 g/ha,0
same,"Plant response rating, Rice",rice (Oryza saliva) [19]; Rate 125 g/ha,20
same,"Plant response rating, Sunflower",Sunflower,20
CCC(CC)c1ccn(C2SCN(c3cccc(C(F)(F)F)c3)C2=O)n1 (centres unmarked) [Compound 25],"Plant response rating, Barnyardgrass",[1],100
same,"Plant response rating, Ducksalad",[2],100
same,"Plant response rating, Rice",rice (Oryza saliva) [3],90
same,"Plant response rating, Flatsedge",[4],100
same,"Plant response rating, Bermudagrass",[5]; [20],60
same,"Plant response rating, Bermudagrass",[5]; [21],70
same,"Plant response rating, Bermudagrass",[5]; [22],90
same,"Plant response rating, Bermudagrass",[5]; [23],90
same,"Plant response rating, Cocklebur",[6]; [21],60
same,"Plant response rating, Cocklebur",[6]; [22],60
same,"Plant response rating, Cocklebur",[6]; [23],60
same,"Plant response rating, Ragweed, Common",[7]; [21],0
same,"Plant response rating, Ragweed, Common",[7]; [22],30
same,"Plant response rating, Ragweed, Common",[7]; [23],40
same,"Plant response rating, Corn",corn (Zea mays); [21],0
same,"Plant response rating, Corn",corn (Zea mays); [22],20
same,"Plant response rating, Corn",corn (Zea mays); [23],30
same,"Plant response rating, Crabgrass",[8]; [21],30
same,"Plant response rating, Crabgrass",[8]; [22],70
same,"Plant response rating, Crabgrass",[8]; [23],90
same,"Plant response rating, Foxtail, Giant",[9]; [21],30
same,"Plant response rating, Foxtail, Giant",[9]; [22],80
same,"Plant response rating, Foxtail, Giant",[9]; [23],90
same,"Plant response rating, Goosegrass",[10]; [21],20
same,"Plant response rating, Goosegrass",[10]; [22],60
same,"Plant response rating, Goosegrass",[10]; [23],60
same,"Plant response rating, Johnsongrass",[11]; [21],20
same,"Plant response rating, Johnsongrass",[11]; [22],50
same,"Plant response rating, Johnsongrass",[11]; [23],90
same,"Plant response rating, Kochia",kochia (Kochia scoparia); [21],70
same,"Plant response rating, Kochia",kochia (Kochia scoparia); [22],70
same,"Plant response rating, Kochia",kochia (Kochia scoparia); [23],70
same,"Plant response rating, Lambsquarters",[12]; [21],90
same,"Plant response rating, Lambsquarters",[12]; [22],100
same,"Plant response rating, Lambsquarters",[12]; [23],100
same,"Plant response rating, Morningglory",[13]; [22],80
same,"Plant response rating, Morningglory",[13]; [23],100
same,"Plant response rating, Pigweed",[14]; [21],90
same,"Plant response rating, Pigweed",[14]; [22],100
same,"Plant response rating, Pigweed",[14]; [23],100
same,"Plant response rating, Soybean",soybean (Glycine max); [21],20
same,"Plant response rating, Soybean",soybean (Glycine max); [22],30
same,"Plant response rating, Soybean",soybean (Glycine max); [23],30
same,"Plant response rating, Velvetleaf",[15]; [21],40
same,"Plant response rating, Velvetleaf",[15]; [22],50
same,"Plant response rating, Velvetleaf",[15]; [23],50
same,"Plant response rating, Nutsedge",[16]; [21],0
same,"Plant response rating, Nutsedge",[16]; [22],0
same,"Plant response rating, Nutsedge",[16]; [23],0
same,Barnyardgrass plant response rating,[17]; Rate 250 g/ha,100
same,Barnyardgrass plant response rating,[17]; Rate 500 g/ha,100
same,"Plant response rating, Barnyardgrass",[17]; Rate 62 g/ha,100
same,"Plant response rating, Barnyardgrass",[17]; Rate 125 g/ha,100
same,Ducksalad plant response rating,[18]; Rate 250 g/ha,100
same,Ducksalad plant response rating,[18]; Rate 500 g/ha,100
same,"Plant response rating, Ducksalad",[18]; Rate 62 g/ha,100
same,"Plant response rating, Ducksalad",[18]; Rate 125 g/ha,100
same,Rice plant response rating,rice (Oryza saliva) [19]; Rate 250 g/ha,60
same,Rice plant response rating,rice (Oryza saliva) [19]; Rate 500 g/ha,80
same,"Plant response rating, Rice",rice (Oryza saliva) [19]; Rate 62 g/ha,30
same,"Plant response rating, Rice",rice (Oryza saliva) [19]; Rate 125 g/ha,20
same,"Plant response rating, Sunflower",Sunflower,0
